In patent publication US7745459B2, “Quinolizinone compound and use thereof as HIV integrase inhibitor” (Japan Tobacco Inc., priority 2004, dated 2010):
pIC50: −log10 of the molar value.

Biological target: T1, HIV integrase (Human immunodeficiency virus type 1 group M subtype B, UniProt P12497, F1332H)
T1 construct: HIV integrase full length gene; made in house; host or cells: Escherichia coli BL21 (DE3)
Test: Determination of enzyme (HIV integrase) inhibitory activity
Assay type: biochemical
Conditions: recombinant integrase protein (phenylalanine at codon 185 substituted by histidine); donor/target DNA, absorbance at 450 nm; read-out: Anti-integrase activity (IC50 value)
Excerpt: The following explains evaluation methods of the HIV integrase inhibitory activity of the compound of the present invention.
HIV integrase full length gene (J. Virol., 67, 425-437 (1993)) in which phenylalanine at codon 185 was substituted by histidine, was inserted between the restriction enzyme NdeI and XhoI sites of plasmid pET21a(+) (Novagen), whereby an integrase expression vector pET21a-INH was constructed.
Escherichia coli recombinant BL21 (DE3) transformed with plasmid pET21a-INH obtained in (i) was shake cultured at 37° C. in a liquid medium containing ampicillin. When the culture reached the logarithmic growth phase, isopropyl-β-D-thiogalactopyranoside was added to promote expression of integrase gene. The culture was continued for 3 hr to promote accumulation of the integrase protein. The recombinant E. coli was collected in pellets by centrifugal separation and preserved at −80° C.
The E. coli was suspended in Lysis buffer (20 mM HEPES (pH 7.5), 5 mM DTT, 10 mM CHAPS, 10% glycerol) containing 1 M sodium chloride and subjected to repeat pressurization and depressurization for rupture, and centrifugal separation at 4° C., 40,000×g, 60 min to recover a water-soluble fraction (supernatant). This was diluted 10-fold with Lysis buffer free of sodium chloride, mixed with SP-Sepharose (Pharmacia Corporation) and stirred at 4° C. for 60 min to allow adsorption of integrase protein to the resin. The resin was washed with Lysis buffer containing 100 mM sodium chloride and the integrase protein was eluted with Lysis buffer containing 1 M sodium chloride.
The eluted integrase protein solution was subjected to a Superdex 75 (Pharmacia Corporation) column for gel filtration. The protein was eluted with Lysis buffer containing 1 M sodium chloride.
The obtained fractions of the integrase protein were collected and preserved at −80° C.
The following DNA synthesized by Greiner was dissolved in TE buffer (10 mM Tris-hydrochloric acid (pH 8.0), 1 mM EDTA) and mixed with donor DNA, target DNA, and each complementary strand (+ and − strands) to 1 μM. The mixture was heated at 95° C. for 5 min, 80° C. for 10 min, 70° C. for 10 min, 60° C. for 10 min, 50° C. for 10 min and 40° C. for 10 min and kept at 25° C. to give a double stranded DNA, which was used for the test.
The donor DNA was diluted with TE buffer to 10 nM, of which 50 μl was added to each well of streptavidin-coated microtiter plate (Roche) and allowed to adsorb at 37° C. for 60 min. The plate was washed with phosphate buffer (Dulbecco's PBS, Sanko Junyaku Co., Ltd.) containing 0.1% Tween 20 and phosphate buffer. Then, a reaction mixture (70 μl) having the following composition, a test substance (10 μl) diluted with the reaction mixture and 100 μg/ml integrase protein (10 μl) were added to each well and reacted at 37° C. for 60 min. Composition of the reaction mixture: 30 mM MOPS (3-morpholinopropanesulfonic acid), 5 mM magnesium chloride, 3 mM DTT (dithiothreitol), 0.1 mg/ml BSA (bovine serum albumin), 5% glycerol, 10% DMSO (dimethyl sulfoxide), 0.01% Tween 20.
Then, 50 nM target DNA (10 μl) was added, and the mixture was reacted at 37° C. for 10 min and washed with phosphate buffer containing 0.1% Tween 20 to stop the reaction.
Then, 100 mU/ml peroxidase labeled anti-digoxigenin antibody solution (Roche, 100 μl) was added, and the mixture was reacted at 37° C. for 60 min, followed by washing with phosphate buffer containing 0.1% Tween 20.
A peroxidase color solution (Bio Rad, 100 μl) was added and allowed to react at room temperature for 4 min. The color reaction was stopped by adding 1N sulfuric acid (100 μl). The absorbance at 450 nm was measured. […]

Structure (SMILES): O=C(O)c1cc(CO)c2ccc(Cc3cccc(Cl)c3F)cn2c1=O [Example 18, 7-(3-chloro-2-fluorobenzyl)-1-hydroxymethyl-4-oxo-4H-quinolizine-3-carboxylic acid]
- pIC50: 7.00 to 8.00

Structure (SMILES): O=C(O)c1cc(CCO)c2ncc(Cc3cccc(Cl)c3F)cn2c1=O [Example 34, 3-(3-chloro-2-fluorobenzyl)-9-(2-hydroxyethyl)-6-oxo-6H-pyrido[1,2-a]pyrimidine-7-carboxylic acid]
- pIC50: 6.00 to 7.00

Structure (SMILES): CC(C)[C@@H](CO)c1cc(C(=O)O)c(=O)n2cc(Cc3cccc(Cl)c3Cl)ccc12 [Example 63, 7-(2,3-dichlorobenzyl)-1-((R)-1-hydroxymethyl-2-methylpropyl)-4-oxo-4H-quinolizine-3-carboxylic acid]
- pIC50: > 8.00

Structure (SMILES): CC(=O)NCc1cc(C(=O)O)c(=O)n2cc(Cc3cccc(Cl)c3F)ccc12 [Example 22, 1-(acetylaminomethyl)-7-(3-chloro-2-fluorobenzyl)-4-oxo-4H-quinolizine-3-carboxylic acid]
- pIC50: 7.00 to 8.00

Structure (SMILES): COc1cc2c([C@H](CO)C(C)(C)C)cc(C(=O)O)c(=O)n2cc1Cc1cccc(Cl)c1F [Example 17, 7-(3-chloro-2-fluorobenzyl)-1-((R)-1-hydroxymethyl-2,2-dimethylpropyl)-8-methoxy-4-oxo-4H-quinolizine-3-carboxylic acid]
- pIC50: > 8.00

Structure (SMILES): O=C(O)c1cc(CNC(=O)N2CCOCC2)c2ccc(Cc3cccc(Cl)c3F)cn2c1=O [Example 47, 7-(3-chloro-2-fluorobenzyl)-1-([(morpholinocarbonyl)amino]methyl)-4-oxo-4H-quinolizine-3-carboxylic acid]
- pIC50: 7.00 to 8.00

Structure (SMILES): CCOC(=O)c1cc(NC(=O)OC(C)(C)C)c2ccc(Cc3cccc(Cl)c3F)cn2c1=O [Example 60, ethyl 1-(tert-butoxycarbonylamino)-7-(3-chloro-2-fluorobenzyl)-4-oxo-4H-quinolizine-3-carboxylate]
- pIC50: 6.00 to 7.00

Structure (SMILES): COCC(=O)NCc1cc(C(=O)O)c(=O)n2cc(Cc3cccc(Cl)c3F)ccc12 [Example 40, 7-(3-chloro-2-fluorobenzyl)-1-[(2-methoxyacetylamino)methyl]-4-oxo-4H-quinolizine-3-carboxylic acid]
- pIC50: 7.00 to 8.00

Structure (SMILES): CC(C)(C)[C@@H](CO)c1cc(C(=O)O)c(=O)n2cc(Cc3cccc(Cl)c3F)ccc12 [Example 16, 7-(3-chloro-2-fluorobenzyl)-1-((R)-1-hydroxymethyl-2,2-dimethylpropyl)-4-oxo-4H-quinolizine-3-carboxylic acid]
- pIC50: > 8.00

Structure (SMILES): CNCc1cc(C(=O)O)c(=O)n2cc(Cc3cccc(Cl)c3F)ccc12 [Example 21, 7-(3-chloro-2-fluorobenzyl)-1-methylaminomethyl-4-oxo-4H-quinolizine-3-carboxylic acid]
- pIC50: 6.00 to 7.00

Structure (SMILES): O=C(O)Cc1cc(C(=O)O)c(=O)n2cc(Cc3cccc(Cl)c3F)ccc12 [Example 36, 1-carboxymethyl-7-(3-chloro-2-fluorobenzyl)-4-oxo-4H-quinolizine-3-carboxylic acid]
- pIC50: 7.00 to 8.00

Structure (SMILES): O=C(O)C(=O)NCc1cc(C(=O)O)c(=O)n2cc(Cc3cccc(Cl)c3F)ccc12 [Example 50, 7-(3-chloro-2-fluorobenzyl)-1-[(oxalylamino)methyl]-4-oxo-4H-quinolizine-3-carboxylic acid]
- pIC50: 7.00 to 8.00

Structure (SMILES): O=C(O)c1cc(CCO)c2ccc(Cc3cccc(Cl)c3F)cn2c1=O [Example 7, 7-(3-chloro-2-fluorobenzyl)-1-(2-hydroxyethyl)-4-oxo-4H-quinolizine-3-carboxylic acid]
- pIC50: 7.00 to 8.00

Structure (SMILES): N#Cc1cc(C(=O)O)c(=O)n2cc(Cc3cccc(Cl)c3F)ccc12 [Example 33, 7-(3-chloro-2-fluorobenzyl)-1-cyano-4-oxo-4H-quinolizine-3-carboxylic acid]
- pIC50: 7.00 to 8.00

Structure (SMILES): CN(C)Cc1cc(C(=O)O)c(=O)n2cc(Cc3cccc(Cl)c3F)ccc12 [Example 38, 7-(3-chloro-2-fluorobenzyl)-1-dimethylaminomethyl-4-oxo-4H-quinolizine-3-carboxylic acid]
- pIC50: 6.00 to 7.00

Structure (SMILES): CC(C)C(CO)c1cc(C(=O)O)c(=O)n2cc(Cc3cccc(Cl)c3F)ccc12 (stereo not drawn) [Example 15, 7-(3-chloro-2-fluorobenzyl)-1-(1-hydroxymethyl-2-methylpropyl)-4-oxo-4H-quinolizine-3-carboxylic acid]
- pIC50: 7.00 to 8.00

Structure (SMILES): O=C(O)c1cc(NCCO)c2ccc(Cc3cccc(Cl)c3F)cn2c1=O [Example 27, 7-(3-chloro-2-fluorobenzyl)-1-(2-hydroxyethylamino)-4-oxo-4H-quinolizine-3-carboxylic acid]
- pIC50: 6.00 to 7.00

Structure (SMILES): COCc1cc(C(=O)O)c(=O)n2cc(Cc3cccc(Cl)c3F)ccc12 [Example 19, 7-(3-chloro-2-fluorobenzyl)-1-methoxymethyl-4-oxo-4H-quinolizine-3-carboxylic acid]
- pIC50: 6.00 to 7.00

Structure (SMILES): CN(Cc1cc(C(=O)O)c(=O)n2cc(Cc3cccc(Cl)c3F)ccc12)C(=O)OC(C)(C)C [Example 41, 1-[(N-(tert-butoxycarbonyl)-N-methylamino)methyl]-7-(3-chloro-2-fluorobenzyl)-4-oxo-4H-quinolizine-3-carboxylic acid]
- pIC50: 7.00 to 8.00

Structure (SMILES): CCOCC(=O)NCc1cc(C(=O)O)c(=O)n2cc(Cc3cccc(Cl)c3F)ccc12 [Example 55, 7-(3-chloro-2-fluorobenzyl)-1-[(2-ethoxyacetylamino)methyl]-4-oxo-4H-quinolizine-3-carboxylic acid]
- pIC50: 7.00 to 8.00

Structure (SMILES): CC(=O)Nc1cc(C(=O)O)c(=O)n2cc(Cc3cccc(Cl)c3F)ccc12 [Example 61, 1-acetylamino-7-(3-chloro-2-fluorobenzyl)-4-oxo-4H-quinolizine-3-carboxylic acid]
- pIC50: 6.00 to 7.00

Structure (SMILES): CC(C)c1cc(C(=O)O)c(=O)n2cc(Cc3cccc(Cl)c3F)ccc12 [Example 13, 7-(3-chloro-2-fluorobenzyl)-1-isopropyl-4-oxo-4H-quinolizine-3-carboxylic acid]
- pIC50: 7.00 to 8.00

Structure (SMILES): O=C(NCc1cc(C(=O)O)c(=O)n2cc(Cc3cccc(Cl)c3F)ccc12)c1ccccc1 [Example 45, 1-(benzoylaminomethyl)-7-(3-chloro-2-fluorobenzyl)-4-oxo-4H-quinolizine-3-carboxylic acid]
- pIC50: 7.00 to 8.00

Structure (SMILES): O=C(O)CCC(=O)NCc1cc(C(=O)O)c(=O)n2cc(Cc3cccc(Cl)c3F)ccc12 [Example 54, 1-[(3-carboxypropionylamino)methyl]-7-(3-chloro-2-fluorobenzyl)-4-oxo-4H-quinolizine-3-carboxylic acid]
- pIC50: 7.00 to 8.00
